The format of data set [1] is in vivo, CB17 SCID/SCID mice. As for the experimental part: Treatments started on day fourteen after C33A cells transplantation. […]. The negative control group was treated with vehicle alone. […].
Observation continued for 40 days after initial tumor implantation.

The test system of data set [2] is C33A cervical carcinoma cells. Put plainly: cells. In kind it is cell-based. The following applies: Homo sapiens, C-33-A, read-out: IC50 (μM) C33A, Effect on Cancer Cells Viability. The text has this: (§1) […]. […] […]. The total dimethyl sulfoxide on the cells was 1%. […] […].
(§2) As depicted in Table 4, these compounds were efficient in decreasing cellular ATP levels in HI 299 and C33A cancer cell lines. Nevertheless, these compounds are believed to have utility in the in vivo methods of the invention, i.e., treatment and prevention of cancer and viral infections, respectively. It should be noted that, although this cell-based assay is believed to be indicative of anti-oncogenic activity in vivo, it is not the only useful assay for evaluating the anti-oncogenic activity of Triheterocyclic Compounds of the invention. In addition, the anti-viral and other biological activity of compounds of the invention can be determined and evaluated in other assay systems known to the skilled artisan.

Data set [3] relates to H1299 human non-small cell lung cancer cells. Put plainly: Cell viability by cellular ATP levels (ViaLight), H1299 cells. It is filed as cell-based. The following applies: Homo sapiens.
Text: as §1, §2

The subject of data set [4] is human prostatic adenocarcinoma cancer PC3 cells. Put plainly: Growth of PC3 prostatic tumors in SCID mice. In kind it is in vivo. The note with it: 5 consecutive intravenous injections; Compound 1 Mesylate Salt 4.84 μMoles/Kg; Compound 66 4.84 or 14.51 μMoles/Kg; FIG. 6. The protocol: The human prostatic adenocarcinoma cancer PC3 cells were purchased from the American Type Culture Collection (ATCC). These cells were confirmed to be free of mycoplasma infection. Cells were maintained in the Roswell Park Memorial Institute (RPMI), supplemented with 10% inactivated fetal bovine serum and 1% penicillin-streptomycin-L-Glutamine, under 5% carbon dioxide (CO2) at 37° C. For prostatic-tumor induction, cells were grown lower than 70% confluence in complete medium and then collected with trypsin (Bio Whittaker, Rockland, Me., USA). Cells were then centrifuged and washed 2 times in phosphate buffer solution (PBS) and resuspended in PBS at 1.5×10^6 cells/0.1 mL. PC3 cells were then transplanted subcutaneously into the flank of SCID mice (Charles River Laboratories, Wilmington, Mass., USA), as a suspension of tumor cells (1.5×10^6 cells in 100 μL PBS), under a laminar airflow hood. Eleven (11) days later, the size of each tumor was measured. […] Relative tumor size and volume was calculated as follows: length (cm)×[width (cm)]^2/2. […]

Data set [5] can be described thus: Shelf stability (precipitation) of formulation. The following applies: 0.6 mg/mL in 9.6% polyethylene glycol 300, 0.4% polysorbate 20 and 5% dextrose. In kind it is physicochemical.
Protocol: To determine whether a compound is soluble in a solution, the solution was filtered on 0.2 μM polytetrafluoroethylene filters (Whatman Inc. Clifton, N.J., USA) and the compound concentration in the filtrate was measured by LC/MS and compared to the expected concentration.
Where [6] appears, read: C33A, cellular ATP levels as described in Example 2.
Where [7] appears, read: NCI-H1299, H1299, cellular ATP levels as described in Example 2, read-out: IC50 (μM) H1299, Effect on Cancer Cells Viability.

Each structure is given as a SMILES string. Where a name gives a salt, the structure may show the parent alone. Read-outs that look alike come from different tables or passages of the source.

For the compound `N.N.[Cl][Pt][Cl]` [cisplatin, reference compound], the deaths entry in data set [1] (cisplatin 4 mg/kg IP, days 29 and 32) is “Two mice died”. The weight loss in data set [1] (day 29, cisplatin 4 mg/kg IP once every 3 days for five times) is reported as 28%.
`COC1=CC(c2cc3c(OC(=O)OC(C)(C)C)cccc3[nH]2)=N/C1=C\c1[nH]c(C)cc1C` [Compound 36, Carbonic acid tert-butyl ester 2-[5-(3,5-dimethyl-1H-pyrrol-2-ylmethylene)-4-methoxy-5H-pyrrol-2-yl]-1H-indol-4-yl ester]: the IC50 in data set [2] (setting [6]) stood at 0.583 µM; in data set [3] (setting [7]), 0.494 µM.
Regarding `COC1=CC(c2cc3ccccc3[nH]2)=N/C1=C\c1[nH]ccc1OC` [Compound 3, 2-[4-Methoxy-5-(3-methoxy-1H-pyrrol-2-ylmethylene)-5H-pyrrol-2-yl]-1H-indole], the IC50 in data set [2] (setting [6]) came to 0.52 µM; in data set [3] (setting [7]) it was 0.3 µM.
In the case of `COC1=CC(c2cc3cc(OC)ccc3n2C(=O)OC(C)(C)C)=N/C1=C\c1[nH]c(C)cc1C` [Compound 30, 2-[5-(3,5-Dimethyl-1H-pyrrol-2-ylmethylene)-4-methoxy-5H-pyrrol-2-yl]-5-methoxy-indole-1-carboxylic acid tert-butyl ester], the IC50 in data set [2] (setting [6]) and in data set [3] (setting [7]) was 50 µM each time.
As for `COC1=CC(c2cc3ccccc3n2C(=O)Nc2ccc(OCc3ccccc3)cc2)=N/C1=C\c1[nH]c(C)cc1C` [Compound 54, 2-[5-(3,5-Dimethyl-1H-pyrrol-2-ylmethylene)-4-methoxy-5H-pyrrol-2-yl]-indole-1-carboxylic acid (4-benzyloxy-phenyl)-amide], the results for the IC50 in data set [2] (setting [6]) and in data set [3] (setting [7]) were 0.145 µM and 0.187 µM, respectively.
The like results for `COC1=CC(c2cc3ccccc3n2C(=O)N(C)C)=N/C1=C\c1[nH]c(C)cc1C` [Compound 39, 2-[5-(3,5-Dimethyl-1H-pyrrol-2-ylmethylene)-4-methoxy-5H-pyrrol-2-yl]-indole-1-carboxylic acid dimethylamide] were, in that order, 2.95 µM and 5.67 µM.
The corresponding values for `COC1=CC(c2[nH]c3ccccc3c2C(=O)NCCCO)=N/C1=C\c1[nH]c(C)cc1C` [Compound 48, 2-[5-(3,5-Dimethyl-1H-pyrrol-2-ylmethylene)-4-methoxy-5H-pyrrol-2-yl]-1H-indole-3-carboxylic acid (3-hydroxy-propyl)-amide] are 11.1 µM and 50 µM.
As for `COC1=CC(c2cc3ccccc3[nH]2)=N/C1=C\c1[nH]c(C)cc1C` [Compound 1 Mesylate Salt], in data set [4], the “growth of prostatic tumors in mice” value was “significantly reduce the growth of prostatic tumors”. The precipitation of formulation result in data set [5] is on record as “no evidence of precipitation 72 hours after its preparation”.
Take `COC1=CC(c2cc3cc(OC)c(OC)cc3n2C(=O)OC(C)(C)C)=N/C1=C\c1[nH]c(C)cc1C` [Compound 5, 2-[5-(3,5-Dimethyl-1H-pyrrol-2-ylmethylene)-4-methoxy-5H-pyrrol-2-yl]-5,6-dimethoxy-indole-1-carboxylic acid tert-butyl ester]: the figures for the IC50 in data set [2] (setting [6]) and in data set [3] (setting [7]) were 2.24 µM and 2.26 µM, respectively.
Regarding `COC1=C(CO)C(c2[nH]c3ccccc3c2CNCCO)=N/C1=C\c1[nH]c(C)cc1C` [Compound 9, 2-({2-[5-(3,5-Dimethyl-1H-pyrrol-2-ylmethylene)-3-hydroxymethyl-4-methoxy-5H-pyrrol-2-yl]-1H-indol-3-ylmethyl}-amino)-ethanol], the IC50 is 2.21 µM in data set [2] (setting [6]) and 4.43 µM in data set [3] (setting [7]).
For the compound `COC1=C(CO)C(c2[nH]c3ccccc3c2CNC(C)C)=N/C1=C\c1[nH]c(C)cc1C` [Compound 11, {5-(3,5-Dimethyl-1H-pyrrol-2-ylmethylene)-2-[3-(isopropylamino-methyl)-1H-indol-2-yl]-4-methoxy-5H-pyrrol-3-yl}-methanol], the IC50 in data set [2] (setting [6]) amounted to 0.307 µM; in data set [3] (setting [7]) it was 0.983 µM.
As to `COC1=CC(c2cc3cc(OC)c(OC)cc3[nH]2)=N/C1=C\c1[nH]c(C)cc1C` [Compound 4, 2-[5-(3,5-Dimethyl-1H-pyrrol-2-ylmethylene)-4-methoxy-5H-pyrrol-2-yl]-5,6-dimethoxy-1H-indole], the values for the IC50 in data set [2] (setting [6]) and in data set [3] (setting [7]) were 0.25 µM and 0.215 µM, respectively.
The like results for `COC1=CC(c2[nH]c3ccccc3c2CN2CCOCC2)=N/C1=C\c1[nH]c(C)cc1C` [Compound 6, 2-[5-(3,5-Dimethyl-1H-pyrrol-2-ylmethylene)-4-methoxy-5H-pyrrol-2-yl]-3-morpholin-4-ylmethyl-1H-indole] were, in that order, 0.19 µM and 0.267 µM.
The corresponding values for `Cc1cc(C)c(/C=C2/N=C(c3cc4cc(F)ccc4[nH]3)C=C2OC(C)C)[nH]1` [Compound 42, 2-[5-(3,5-Dimethyl-1H-pyrrol-2-ylmeythylene)-4-isopropoxy-5H-pyrrol-2-yl]-5-fluoro-1H-indole] are 0.358 µM and 0.458 µM.
Consider `COC1=CC(c2cc3ccccc3[nH]2)=N/C1=C\c1[nH]c(C)c(CCCO)c1C` [Compound 41, 3-{5-[5-(1H-indol-2-yl)-3-methoxy-pyrrol-2-ylidenemethyl]-2,4-dimethyl-1H-pyrrol-3-yl}-propan-1-ol], for which the IC50 in data set [2] (setting [6]) is 1.79 µM; in data set [3] (setting [7]) it was 3.35 µM.
The like results for `COC1=CC(c2[nH]c3ccccc3c2C(=O)c2ccsc2)=N/C1=C\c1[nH]c(C)cc1C` [Compound 12, {2-[5-(3,5-Dimethyl-1H-pyrrol-2-ylmethylene)-4-methoxy-5H-pyrrol-2-yl]-1H-indol-3-yl}-thiophen-3-yl-methanone] were, in that order, 3.6 µM and 2.95 µM.
The corresponding values for `COC1=CC(c2cc3ccccc3n2CCOS(=O)(=O)O)=N/C1=C\c1[nH]c(C)cc1C` [Compound 65, Sodium salt of Sulfuric acid mono-(2-{2-[5-(3,5-dimethyl-1H-pyrrol-2-ylmethylene)-4-methoxy-5H-pyrrol-2-yl]-indol-1-yl}-ethyl) ester] are 5.97 µM and 7.89 µM.
For the compound `CCOC(=O)COC1=CC(c2cc3ccccc3[nH]2)=N/C1=C\c1[nH]c(C)cc1C` [Compound 53, [2-(3,5-Dimethyl-1H-pyrrol-2-ylmethylene)-5-(1H-indol-2-yl)-2H-pyrrol-3-yloxy]-acetic acid ethyl ester], the IC50 in data set [2] is 10.2 µM; in data set [3] (NCI-H1299, read-out: IC50 (μM) H1299, Effect on Cancer Cells Viability), 10.6 µM.
For the compound `Cc1cc(C)c(/C=C2\N=C(c3cc4ccc(Cl)cc4[nH]3)C=C2OC(C)C)[nH]1` [Compound 46, 6-Chloro-2-[5-(3,5-dimethyl-1H-pyrrol-2-ylmethylene)-4-isopropoxy-5H-pyrrol-2-yl]-1H-indole], the figures for the IC50 in data set [2] (setting [6]) and in data set [3] (setting [7]) were 0.261 µM and 0.245 µM, respectively.
The corresponding values for `Cc1cc(C)c(/C=C2\N=C(c3cc4ccc(O)cc4[nH]3)C=C2OC(C)C)[nH]1` [Compound 56, 2-[5-(3,5-Dimethyl-1H-pyrrol-2-ylmethylene)-4-isopropoxy-5H-pyrrol-2-yl]-1H-indol-6-ol] are 2.54 µM and 5.96 µM.

The record behind these values is patent publication US20050267073A1, “Triheterocyclic compounds, compositions, and methods for treating cancer or viral diseases” (priority 2004, published 2005).
